Source: US20110034990A1, “BIOCORRODIBLE IMPLANT WITH ACTIVE COATING” (priority 2009, published 2011)

From the text: It has been discovered that squalene is a particularly suitable substance for use in some invention embodiments. […] Thus, for example, lycopene and ubichinon are toxic in concentrations of 10 μmol/l. Squalene, on the other hand, is not toxic, even in concentrations of 100 μmol/l.

Molecule	concentration at which the substance is toxic [µM]
CC(C)=CCC/C(C)=C/C=C/C(C)=C/C=C/C(C)=C/C=C/C=C(C)/C=C/C=C(C)/C=C/C=C(\C)CCC=C(C)C [lycopene]	10
ubichinon	10
CC(C)=CCCC(C)=CCCC(C)=CCCC=C(C)CCC=C(C)CCC=C(C)C [Squalene, 2,6,10,15,19,23-hexamethyl-2,6,10,14,18,22-tetracosahexaene]	> 100
